Consider five compounds from patent US20110201665A1, “Compositions, Methods, and Kits for Treating Influenza Viral Infections” (priority 2009, published 2011).

Series [1] concerns Influenza A/NWS/33 (H1N1). The arrangement: species or system C57/BL6 mice. The settings on record: mouse, in vivo; for survival on day 8: po.
The conditions of series [2]: in vivo, po; cited from earlier work.
On the set-up of series [3]: dose or concentration left out as unconfirmed. The settings on record: Phase I, single or multiple oral doses; cited from earlier work.
The next series has as its system influenza A or B viruses. The settings on record: human, in vivo, po; cited from earlier work.

For the compound `CC(C)C(=O)c1c(C(C)C)nn2ccccc12` [ibudilast, 1-(2-isopropyl-pyrazolo[1,5-a]pyridine-3-yl)-2-methylpropan-1-one], the “survival on day 8” value in series [1] was found to be 0%. Consider `CCOC(=O)C1=C[C@@H](OC(CC)CC)[C@H](NC(C)=O)[C@@H](N)C1` [oseltamivir, (3R,4R,5S)-4-acetylamino-5-amino-3(1-ethylpropoxy)-1-cyclohexene-1-carboxylic acid, ethyl ester], for which the half-life (in general, the time in which the quantity being followed falls by half) in series [2] was 6 to 10 h. The survival rate in series [1] stood at 40%. With `CCC(CC)[C@H](NC(C)=O)[C@@H]1[C@H](O)[C@@H](C(=O)O)C[C@H]1NC(=N)N` [peramivir, (1S,2S,3S,4R)-3-[(1S)-1-Acetamido-2-ethyl-butyl]-4-(diaminomethylideneamino)-2-hydroxy-cyclopentane-1-carboxylic acid], the tolerability result in series [3] is “well-tolerated”. Besides, in the series with influenza A or B viruses, the adverse effects result is reported as “no adverse effects”. For the compound `O=C(Nc1c(Cl)cncc1Cl)c1ccc(OC(F)F)c(OCC2CC2)c1` [roflumilast, 3-(cyclopropylmethoxy)-N-(3,5-dichloropyridin-4-yl)-4-(difluoromethoxy)benzamide], the “survival on day 8” value in series [1] was found to be 0%. For the compound `COc1ccc(C2CNC(=O)C2)cc1OC1CCCC1` (stereo not shown) [rolipram, 4-[3-(cyclopentyloxy)-4-methoxyphenyl]-2-pyrrolidone], the “survival on day 8” value in series [1] came out at 0%.
